Assay results taken from the NIST ThermoML archive (doi:10.1016/j.jct.2018.03.007).

Assay: xn = mol fraction of the nth substance listed
Conditions: 100 kPa, Liquid; for speed of sound: Linear variable-path acoustic interferometer; for mass density: Vibrating tube method

CCn1cc[n+](C)c1.O=S(=O)([O-])O [1-ethyl-3-methylimidazolium hydrogen sulfate] + CCCO
speed of sound [m/s], Frequency=2 MHz
Conditions | x1 = 0.0519 | x1 = 0.1097 | x1 = 0.2473 | x1 = 0.3301 | x1 = 0.425 | x1 = 0.5348 | x1 = 0.6634 | x1 = 0.816 | x1 = 0.9035 | x1 = 1
298.15 K | 1272.3 | 1342.3 | 1486.2 | 1561.1 | 1640.8 | 1724.4 | 1808.4 | 1892 | 1937.7 | 1982.8
303.15 K | 1254.7 | 1324 | 1467.1 | 1542 | 1621.3 | 1704.9 | 1788.3 | 1871.6 | 1917.9 | 1962.9
308.15 K | 1237.1 | 1305.9 | 1448.3 | 1522.1 | 1601.4 | 1684.2 | 1767.3 | 1850.6 | 1898.1 | 1943.1
313.15 K | 1219.7 | 1288.1 | 1429.1 | 1502.6 | 1581.7 | 1664.9 | 1747.8 | 1830.1 | 1878.1 | 1923.2

mass density [kg/m3]
Conditions | x1 = 0.0519 | x1 = 0.1097 | x1 = 0.2473 | x1 = 0.3301 | x1 = 0.425 | x1 = 0.5348 | x1 = 0.6634 | x1 = 0.816 | x1 = 0.9035 | x1 = 1
298.15 K | 859.54 | 918.5 | 1034.63 | 1091.59 | 1147.59 | 1202.62 | 1256.73 | 1310.71 | 1338.05 | 1365.75
303.15 K | 855.59 | 914.64 | 1030.95 | 1088.01 | 1144.15 | 1199.35 | 1253.6 | 1307.54 | 1334.87 | 1362.62
308.15 K | 851.62 | 910.8 | 1027.23 | 1084.39 | 1140.69 | 1196.07 | 1250.5 | 1304.42 | 1331.73 | 1359.53
313.15 K | 847.65 | 906.93 | 1023.51 | 1080.78 | 1137.24 | 1192.77 | 1247.33 | 1301.31 | 1328.62 | 1356.41

CCn1cc[n+](C)c1.O=S(=O)([O-])O [1-ethyl-3-methylimidazolium hydrogen sulfate] + CCO
speed of sound [m/s], Frequency=3 MHz
Conditions | x1 = 0.0281 | x1 = 0.0878 | x1 = 0.1779 | x1 = 0.3378 | x1 = 0.4731 | x1 = 0.577 | x1 = 0.6689 | x1 = 0.7759 | x1 = 0.8797 | x1 = 1
298.15 K | 1190.1 | 1289.8 | 1416.2 | 1577.8 | 1698.6 | 1780.2 | 1836.4 | 1893.6 | 1943.4 | 1982.8
303.15 K | 1170.6 | 1267.3 | 1393.3 | 1558.4 | 1675.8 | 1755.7 | 1816.2 | 1871.9 | 1922.1 | 1962.9
308.15 K | 1152.1 | 1245.3 | 1370.9 | 1538.6 | 1653 | 1731.4 | 1796 | 1850.2 | 1900.8 | 1943.1
313.15 K | 1132.9 | 1222.8 | 1348 | 1516.6 | 1630.3 | 1707.9 | 1773.8 | 1828.5 | 1879.5 | 1923.2

mass density [kg/m3]
Conditions | x1 = 0.0281 | x1 = 0.0878 | x1 = 0.1779 | x1 = 0.3378 | x1 = 0.4731 | x1 = 0.577 | x1 = 0.6689 | x1 = 0.7759 | x1 = 0.8797 | x1 = 1
298.15 K | 829.67 | 910.66 | 1007.45 | 1129.95 | 1203.92 | 1248.74 | 1281.87 | 1314.38 | 1340.71 | 1365.75
303.15 K | 825.5 | 906.7 | 1003.74 | 1126.52 | 1200.65 | 1245.56 | 1278.69 | 1311.18 | 1337.51 | 1362.62
308.15 K | 821.28 | 902.7 | 999.98 | 1123.06 | 1197.38 | 1242.38 | 1275.52 | 1308 | 1334.34 | 1359.53
313.15 K | 817 | 898.63 | 996.14 | 1119.54 | 1194.05 | 1239.13 | 1272.31 | 1304.78 | 1331.14 | 1356.41

CCn1cc[n+](C)c1.O=S(=O)([O-])O [1-ethyl-3-methylimidazolium hydrogen sulfate] + C[S+](C)[O-]
speed of sound [m/s], Frequency=2 MHz
Conditions | x1 = 0.0494 | x1 = 0.1349 | x1 = 0.2377 | x1 = 0.3638 | x1 = 0.5219 | x1 = 0.6517 | x1 = 0.7261 | x1 = 0.8081 | x1 = 0.9182 | x1 = 1
298.15 K | 1530.5 | 1600.5 | 1672.7 | 1746.9 | 1823.3 | 1875.5 | 1902 | 1928.7 | 1961 | 1982.8
303.15 K | 1513.4 | 1582.9 | 1654.4 | 1728.2 | 1804.2 | 1856.1 | 1882.4 | 1909 | 1941.2 | 1962.9
308.15 K | 1495.9 | 1564.8 | 1635.9 | 1709.3 | 1784.9 | 1836.6 | 1862.8 | 1889.3 | 1921.5 | 1943.1
313.15 K | 1478.6 | 1547 | 1617.6 | 1690.5 | 1765.7 | 1817.1 | 1843.2 | 1869.6 | 1901.6 | 1923.2

mass density [kg/m3]
Conditions | x1 = 0.0494 | x1 = 0.1349 | x1 = 0.2377 | x1 = 0.3638 | x1 = 0.5219 | x1 = 0.6517 | x1 = 0.7261 | x1 = 0.8081 | x1 = 0.9182 | x1 = 1
298.15 K | 1128.82 | 1175.73 | 1219.12 | 1259.43 | 1297.19 | 1320.97 | 1332.42 | 1343.71 | 1357.03 | 1365.75
303.15 K | 1124.11 | 1171.37 | 1214.91 | 1255.51 | 1293.61 | 1317.58 | 1329.14 | 1340.51 | 1353.89 | 1362.62
308.15 K | 1119.4 | 1166.99 | 1210.85 | 1251.66 | 1290.03 | 1314.21 | 1325.9 | 1337.32 | 1350.73 | 1359.53
313.15 K | 1114.68 | 1162.54 | 1206.72 | 1247.85 | 1286.51 | 1310.9 | 1322.64 | 1334.1 | 1347.61 | 1356.41
